Earlier results on 2 compounds are cited in patent US20240382574A1, “METHODS AND COMPOSITIONS FOR ORALLY DOSING ANIMALS” (Animal Science Products, Inc., priority 2023, published 2024).

This series concerns piglets. Particulars: previous research.

Turning to 3-methylindole (skatole), the attraction of piglets entry was “piglets are attracted to these molecules”.

Consider `CCCCCCCCCCCCCC(=O)O` [myristic acid, tetradecanoic acid (myristic acid)], for which the attraction of piglets result is recorded as “piglets are attracted to these molecules”.
